“And” between values parts separate entries of the source, which are not always exact repeats. Identical values can stand only once.
Legend:
TrxR from E. coli = TrxR from E. coli (Escherichia coli, UniProt P0A9P4); experiment: Inhibition of isolated bacterial TrxR, DTNB-based assay; type: biochemical; parameters: purchased Sigma-Aldrich; conditions: for TrxR activity, % of control: compounds at 0.5 µM, n = 2, Table S13; for IC50: isolated E. coli TrxR, DTNB assay, ± standard deviation, n = 3
Description: The inhibition of isolated TrxR from E. coli was determined for the selected monocarbene gold(I/III) complexes 2a–c and 4b–c using a DTNB-based assay (Table 3). […] The inhibition of bacterial TrxR for compound 2a was investigated in our previous report (Table 3).
S2.3. Inhibition of bacterial TrxR from E. coli
The TrxR (E. coli) inhibition assay was performed according to previously published procedures.[8] The assay is partly based on the procedure developed by Lu et al[9] and makes use of the reduction of DTNB (5,5′-dithiobis-(2-nitrobenzoic acid)). Solutions of E. coli TrxR (10.1 U/mL) and E. coli thioredoxin (Trx) (312 μg/mL) (both purchased from Sigma-Aldrich) were prepared in distilled water. Stock solutions of the test compounds (2 mM) were prepared in DMSO and serially diluted with TE buffer (Tris-HCl 50 mM, EDTA 1 mM, pH 7.5). 20 μL of these solutions or TE buffer without the test compounds (positive control) were mixed with the TrxR solution (10 μL), the Trx solution (10 μL) and 100 µl of NADPH (200 μM) in TE buffer in a well on a 96-well plate. As a blank control, 200 μM NADPH in TE buffer (100 μL) mixed with a DMSO / buffer mixture (40 μL) was used (final concentrations of DMSO: 0.5% v/v). The plate was incubated for 75 min at 25°C with moderate shaking. After incubation, 100 μL of a reaction mixture (TE buffer containing 200 μM NADPH and 5 mM DTNB) was added to each well to initiate the reaction. After thorough mixing, the formation of 5-TNB was monitored by a microplate reader at 405 nm in 35 s intervals (10 measurements). The values were corrected by subtraction of the blank solution absorption values. The increase in concentration of 5-TNB followed a linear trend (r2≥ 0.990) and the enzymatic activities were calculated as the gradients (increase in absorbance per second) thereof. […]
for each test compound, where the highest test compound concentration was used and the enzyme solution was replaced by TE buffer. The inhibition is presented as the mean IC50 values and standard deviations obtained in three independent experiments.
Table S13. Activity of TrxR from E. coli in presence of compounds at 0.5 µM (n = 2, n.d.= not

[1] = tested on: Vero E6 African green monkey kidney cells; experiment: Antiproliferative activity in non-tumour reference cell line; type: cell-based; conditions: for IC50: Vero E6 non-tumour reference cell line, SD in parentheses, n = 3
Description: (§1) The antiproliferative potential of the gold–NHC complexes was determined in A549 lung carcinoma cells, MDA-MB-231 breast cancer cells, MCF-7 breast adenocarcinoma cells, and HT-29 colon carcinoma cells (Table 1). Vero E6 African green monkey kidney cells served as a reference cell line to check for possible tumour selectivity. Auranofin (AF) was used as an established reference drug.[15,17] […]
(§2) S2.2. Cytotoxicity and Anticancer Studies
(§3) Cell culture and cytotoxicity
(§4) Cell lines were sourced from DSMZ (German Collection of Microorganisms and Cell Cultures GmbH) and maintained through standard procedures in Dulbecco's Modified Eagle Medium (DMEM) supplemented with 10% fetal calf serum and 50 mg/L gentamycin. Antiproliferative effects were assessed using a well-established assay protocol. In brief, 100 μL volumes of A549 cells (13,243 cells per mL), HT-29 cells (14,657 cells per mL), MDA-MB-231 cells (6,613 cells per mL), or MCF-7 cells (6,917 cells per mL) were transferred into the wells of 96-well plates and incubated at 37°C/5% CO2 for 72 […]
(§5) Freshly prepared stock solutions of the compounds in DMSO were diluted with the respective cell culture medium to achieve graded concentrations (final concentration of DMSO: 0.1% v/v). After 72 hours (A549, HT-29) or 96 hours (MCF-7, MDA-MB-231) of exposure, the cell biomass was assessed through crystal violet staining, and the IC50 value was determined as the concentration causing 50% inhibition of cell proliferation compared to an untreated control. Results were calculated as the mean values of three independent experiments.

[2] = tested on: MDA-MB-231 breast cancer cells; experiment: Antiproliferative activity, crystal violet assay; type: cell-based; conditions: 96 h exposure, SD in parentheses, n = 3
Description: as §1, §2, §3, §4, §5

[3] = tested on: MCF-7 breast adenocarcinoma cells; experiment: Antiproliferative activity, crystal violet assay; type: cell-based; conditions: 96 h exposure, SD in parentheses, n = 3
Description: as §1, §2, §3, §4, §5

[4] = tested on: HT-29 colon carcinoma cells; experiment: Antiproliferative activity, crystal violet assay; type: cell-based; conditions: 72 h exposure, SD in parentheses, n = 3
Description: as §1, §2, §3, §4, §5

[5] = tested on: A549 lung carcinoma cells; experiment: Antiproliferative activity, crystal violet assay; type: cell-based; conditions: 72 h exposure, SD in parentheses, n = 3
Description: as §1, §2, §3, §4, §5

[6] = tested on: Escherichia coli DSM 1116; experiment: Antibacterial activity (MIC, curve fitting); type: cell-based; conditions: for MIC, E.c.: Table 2, Escherichia coli DSM 1116, 18 h, 37 °C; for MIC, E. coli: Table S12, ± standard error of the mean
Description: (§6) The antibacterial activity of all gold complexes was assessed against six pathogenic bacterial strains, including two Gram-positive species, i.e. Enterococcus faecium and methicillin-resistant Staphylococcus aureus (MRSA), and four Gram-negative species, i.e. Acinetobacter baumannii, Escherichia coli, Klebsiella pneumoniae, and Pseudomonas aeruginosa. Minimum inhibitory concentrations (MICs) were determined using a curve-fitting technique.
(§7) S2.1. Antibacterial Studies
(§8) Bacterial cultures were prepared by overnight aerobic incubation at 37 °C. Gram-negative strains were cultivated in Müller Hinton broth supplemented with 1% glucose at pH 7.2, while Gram-positive strains were grown in Trypticase soy yeast extract medium (TSY) with a composition of 30 g/l trypticase soy broth, 3 g/l yeast extract, and pH 7.2. The cultures were adjusted to an OD600 of 0.001, resulting in a final starting OD600 of 0.0005 for the subsequent tests. For testing, 25 μL of the prepared culture was combined with 25 μL of serially diluted test compounds in 384 well plates, following established protocols for different strains. Screening was performed at compound concentrations of 0.5, 5, and 50 µM, and for selected compounds, growth inhibition curves were recorded using DMSO stock solutions […]
(§9) Positive control compounds, namely linezolid (for MRSA strains), ciprofloxacin (for E. faecium and E. coli), and amikacin (for P. aeruginosa), were included. The maximum DMSO concentration in the assay […]
(§10) After an 18-hour incubation at 37 °C under moist conditions, the optical density at 600 nm was measured using a Fusion Universal Microplate Analyser (Perkin–Elmer, Waltham, USA). The minimum inhibitory concentration (MIC) values, representing the […]
(§11) fitting with Sigma Plot. The bacterial strains used included Gram-negative strains: Escherichia coli (DSM 1116), A. baumannii (DSM30007), K. pneumoniae (DSM111678), and Pseudomonas aeruginosa PA7 (DSM 24068); and Gram-positive strains: E. faecium (DSM20477) and Staphylococcus aureus MRSA

[7] = tested on: Pseudomonas aeruginosa DSM 24068; experiment: Antibacterial activity (MIC, curve fitting); type: cell-based; conditions: for MIC, P.a.: Table 2, Pseudomonas aeruginosa DSM 24068, 18 h, 37 °C; for MIC, P. aeruginosa: Table S12, ± standard error of the mean
Description: as §6, §7, §8, §9, §10, §11

[8] = tested on: Enterococcus faecium DSM20477; experiment: Antibacterial activity (MIC, curve fitting); type: cell-based; conditions: for MIC, E.f.: Table 2, Enterococcus faecium DSM20477, 18 h, 37 °C; for MIC, E. faecium: Table S12, ± standard error of the mean
Description: as §6, §7, §8, §9, §10, §11

[9] = tested on: methicillin-resistant Staphylococcus aureus DSM 11822; experiment: Antibacterial activity (MIC, curve fitting); type: cell-based
Description: as §6, §7, §8, §9, §10, §11

[10] = tested on: Acinetobacter baumannii DSM30007; experiment: Antibacterial activity (MIC, curve fitting); type: cell-based; conditions: for MIC, A.b.: Table 2, Acinetobacter baumannii DSM30007, 18 h, 37 °C; for MIC, A. baumannii: Table S12, ± standard error of the mean
Description: as §6, §7, §8, §9, §10, §11

[11] = tested on: Klebsiella pneumoniae DSM111678; experiment: Antibacterial activity (MIC, curve fitting); type: cell-based; conditions: for MIC, K.p.: Table 2, Klebsiella pneumoniae DSM111678, 18 h, 37 °C; for MIC, K. pneumoniae: Table S12, ± standard error of the mean
Description: as §6, §7, §8, §9, §10, §11

[12] = Table 2, MRSA DSM 11822, 18 h, 37 °C
[13] = Table S12, ± standard error of the mean

Chain of TrxR from E. coli (P0A9P4 2-321): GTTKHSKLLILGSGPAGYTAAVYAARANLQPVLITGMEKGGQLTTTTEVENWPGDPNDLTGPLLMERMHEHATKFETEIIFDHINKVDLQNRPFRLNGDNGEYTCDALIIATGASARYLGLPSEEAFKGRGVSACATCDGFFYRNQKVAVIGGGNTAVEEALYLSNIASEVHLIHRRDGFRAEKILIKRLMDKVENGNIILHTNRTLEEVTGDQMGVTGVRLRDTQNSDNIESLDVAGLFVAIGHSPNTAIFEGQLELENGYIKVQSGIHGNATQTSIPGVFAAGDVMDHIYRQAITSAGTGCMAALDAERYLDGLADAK

Compound	TrxR activity, % of control (TrxR from E. coli)	IC50 (TrxR from E. coli) [µM]	IC50 [1] [µM]	IC50 [2] [µM]	IC50 [3] [µM]	IC50 [4] [µM]	IC50 [5] [µM]	MIC, E.c. [6]	MIC, E. coli [6] [µM]	MIC, P.a. [7] [µM]	MIC, P. aeruginosa [7] [µM]	MIC, E.f. [8]	MIC, E. faecium [8] [µM]	MIC, MRSA [9, 12]	MIC, MRSA [9, 13] [µM]	MIC, A.b. [10]	MIC, A. baumannii [10] [µM]	MIC, K.p. [11]	MIC, K. pneumoniae [11] [µM]	Tumour selectivity: tumour cell lines in comparison to Vero E6 ([1]; comparison of IC50 in tumour cell lines and non-tumour Vero E6)
COC(=O)c1cn(C)[c]([Au-]([Cl])([Cl])[Cl])[n+]1C [4b]	36.5 % of control	0.362 ± 0.033	22.2	15.2	15.2	26.2	17.7	35 µM and 35 ± 0 µM	34.97 ± 0	>100	> 100	17 µM and 17 ± 0 µM	17.49 ± 0	17 µM and 17 ± 0 µM	17.49 ± 0	9 µM and 9 ± 2 µM	8.74 ± 1.82	35 µM and 35 ± 0 µM	34.97 ± 0	–
COC(=O)c1cn(C)[c]([Au-][Cl])[n+]1C [2b]	8.9 % of control	0.293 ± 0.163	–	12.8	23.8	19.8	22.7	41 µM and 41 ± 0 µM	41.39 ± 0	>100	> 100	10 µM and 10 ± 0 µM	10.35 ± 0	10 µM and 10 ± 0 µM	10.35 ± 0	10 µM and 10 ± 0 µM	10.35 ± 0	41 µM and 41 ± 0 µM	41.39 ± 0	–
CC(=O)OC[C@H]1O[C@@H]([S-])[C@H](OC(C)=O)[C@@H](OC(C)=O)[C@@H]1OC(C)=O.CCP(CC)CC.[Au+] [AF, auranofin, reference compound]	–	0.21 ± 0.03	2.4	0.8	1.89	4.32	3.53	46 µM	46	>100	> 100	0.3 µM	0.3	0.4 µM	0.4	55 µM	55	81 µM	81	–
COC(=O)c1cn(C)[c]([Au-][c]2n(C)cc(C(=O)OC)[n+]2C)[n+]1C.O=S(=O)([O-])C(F)(F)F [3b]	106 % of control	–	> 100	19.2	34.4	27.7	5.21	–	> 100	–	> 100	–	> 100	–	> 100	–	> 100	–	> 100	clear preference for the tumour cell lines
CCOC(=O)c1cn(C)[c]([Au-][Cl])[n+]1C [2c]	13.8 % of control	0.133 ± 0.044	13.1	8.9	9.93	22.1	10.4	40 µM and 40 ± 0 µM	39.94 ± 0	>100	> 100	10 µM and 10 ± 0 µM	9.98 ± 0	10 µM and 10 ± 0 µM	9.98 ± 0	10 µM and 10 ± 2 µM	9.98 ± 2.07	40 µM and 40 ± 0 µM	39.94 ± 0	–
Cn1cc(C(=O)O)[n+](C)[c]1[Au-]([Cl])([Cl])[Cl] [4a]	86.1 % of control	–	42.4	31.8	47.8	> 90	36.1	72 ± 0 µM	72.16 ± 0	>100	> 100	>100 µM	> 100	>100 µM	> 100	36 ± 3 µM	36.08 ± 2.83	36 ± 6 µM	36.08 ± 5.67	–
Cn1cc(C(=O)O)[n+](C)[c]1[Au-][c]1n(C)cc(C(=O)O)[n+]1C.[Cl-] [3a]	–	–	–	–	–	–	–	–	62.4 ± 0	–	62.4 ± 0	–	> 100	–	> 100	–	31.2 ± 4.90	–	62.4 ± 0	–
